Assay results taken from patent publication US8835466B2, “Synthesis and uses of pyroglutamic acid derivatives” (Prodimed, S.A., priority 2006, dated 2014).

System: KLN 205 cells (lung cell carcinoma)
Assay: Effect of 9d and Cisplatin on KLN 205 tumour growth after subcutaneous, intradermal or intramuscular inoculation (Example 12)
Format: in vivo, DBA/2 mice
Procedure: This was carried out by measuring two perpendicular diameters (d1/d2) with a calliper. These measures were used to obtain both tumour surface and volume: […] Results were expressed as single values and/or as the mean±SD or median from each experimental group. This assay was made in order to check the effect on in vivo tumour growth in mice challenged with KLN 205 cells. Tumours where established by subcutaneous, intradermal or intramuscular inoculation. The effect of the combination of cisplatin and/or Isomer (9d) was compared with placebo in mice challenged intradermally. […] KLN 205 is a lung cell carcinoma originated in DBA/2 mouse strain, and therefore syngeneic in mice with DBA/2 genetic background (Kaneko T and […]. Growth characteristics and drug responses of a murine lung carcinoma in vitro and in vivo. Cancer Research. 38: 2084-2090; 1978). KLN 205 cells (CLS, Eppelheim, Germany) were maintained in vitro by serial passages every 3-4 days. […] Louis, Mo., USA) by seeding 5×10^6 cells onto 75 cm^2 culture flasks. Subcultures were carried out by collecting detached cells after treatment with trypsin-EDTA (Sigma, St. Louis, Mo., USA). Tumour cells, collected from 48 hour cultures, were used as source of KLN 205 cells for the studies described below. […] Tumours were established by subcutaneous and intradermal inoculation in the right hind flank, and intramuscular in the right hind leg. Mice (DBA/2) were inoculated with 0.05 mL containing 2×10^5 viable KLN 205 cells. The day of subcutaneous, intradermal and intramuscular inoculation will be considered Day 0 of the test. A case-control study was performed with treated and control mice in order to determine whether differences between placebo, 9d, Cisplatin or 9d+Cisplatin were present. The data obtained (tumour surface and volume) were tested for Normal distribution within the groups (Kolmogorov Smirnov test p<0.05). […] The U-test of Mann Withney was chosen for being one of the better known non-parametrical tests, anyway, results for this test are equivalent both to those of Wilcoxon's sum of ranges and Kruskal-Wallis two-groups test.

[1] = Group A2 (9d 250 ng/mouse), day 0 after tumour inoculation
[2] = Group A2 (9d 250 ng/mouse), day 10 after tumour inoculation
[3] = Group A2 (9d 250 ng/mouse), day 13 after tumour inoculation
[4] = Group A2 (9d 250 ng/mouse), day 17 after tumour inoculation
[5] = Group A2 (9d 250 ng/mouse), day 20 after tumour inoculation
[6] = Group A2 (9d 250 ng/mouse), day 24 after tumour inoculation
[7] = Group A2 (9d 250 ng/mouse), day 27 after tumour inoculation
[8] = Group A2 (9d 250 ng/mouse), day 31 after tumour inoculation
[9] = Group C2 (9d 250 ng/mouse), day 0 after tumour inoculation
[10] = Group C2 (9d 250 ng/mouse), day 10 after tumour inoculation
[11] = Group C2 (9d 250 ng/mouse), day 13 after tumour inoculation
[12] = Group C2 (9d 250 ng/mouse), day 17 after tumour inoculation
[13] = Group C2 (9d 250 ng/mouse), day 20 after tumour inoculation
[14] = Group C2 (9d 250 ng/mouse), day 24 after tumour inoculation
[15] = Group C2 (9d 250 ng/mouse), day 27 after tumour inoculation
[16] = Group C2 (9d 250 ng/mouse), day 31 after tumour inoculation
[17] = Group C2 (9d 250 ng/mouse), day 34 after tumour inoculation
[18] = Group C2 (9d 250 ng/mouse), day 38 after tumour inoculation
[19] = Groups B2-B4 (9d 250 ng, Cisplatin 65 μg, or both), day 0 after tumour inoculation
[20] = Groups B2-B4 (9d 250 ng, Cisplatin 65 μg, or both), day 10 after tumour inoculation
[21] = Groups B2-B4 (9d 250 ng, Cisplatin 65 μg, or both), day 13 after tumour inoculation
[22] = Groups B2-B4 (9d 250 ng, Cisplatin 65 μg, or both), day 17 after tumour inoculation
[23] = Groups B2-B4 (9d 250 ng, Cisplatin 65 μg, or both), day 20 after tumour inoculation
[24] = Groups B2-B4 (9d 250 ng, Cisplatin 65 μg, or both), day 24 after tumour inoculation
[25] = Groups B2-B4 (9d 250 ng, Cisplatin 65 μg, or both), day 27 after tumour inoculation
[26] = Groups B2-B4 (9d 250 ng, Cisplatin 65 μg, or both), day 31 after tumour inoculation

`Br.N[C@]1(C[n+]2ccccc2)C[C@H](C(=O)O)NC1=O.[Br-]` (single isomer, unassigned; isomer 4) [isomer 4, 3S,5R-1-(3-Amino-5-carboxy-2-oxopyrrolidin-3-ylmethyl)pyridinium bromide hidrobromide] was tested, and the “SURFACE Overall values (Mean)” value [1] was 0 mm^2, the “SURFACE Overall values (Median)” value [1] was 0 mm^2 and the “VOLUME Overall values (Mean)” value [1] was 0 mm^3. The “VOLUME Overall values (Median)” value [1] was 0 mm^3, the “SURFACE Overall values (Mean)” value [2] was 11.4 mm^2 and the “SURFACE Overall values (Median)” value [2] was 12.5 mm^2. The “VOLUME Overall values (Mean)” value [2] was 22 mm^3, the “VOLUME Overall values (Median)” value [2] was 22.75 mm^3 and the “SURFACE Overall values (Mean)” value [3] was 27.4 mm^2. For the same molecule, the “SURFACE Overall values (Median)” value [3] was 30 mm^2, the “VOLUME Overall values (Mean)” value [3] was 75.5 mm^3 and the “VOLUME Overall values (Median)” value [3] was 75 mm^3. The “SURFACE Overall values (Mean)” value [4] was 49 mm^2, the “SURFACE Overall values (Median)” value [4] was 45 mm^2 and the “VOLUME Overall values (Mean)” value [4] was 171.6 mm^3. For the same molecule, the “VOLUME Overall values (Median)” value [4] was 135 mm^3, the “SURFACE Overall values (Mean)” value [5] was 74.4 mm^2 and the “SURFACE Overall values (Median)” value [5] was 70 mm^2. For the same molecule, the “VOLUME Overall values (Mean)” value [5] was 304.2 mm^3, the “VOLUME Overall values (Median)” value [5] was 245 mm^3 and the “SURFACE Overall values (Mean)” value [6] was 117.4 mm^2. The “SURFACE Overall values (Median)” value [6] was 118.5 mm^2, the “VOLUME Overall values (Mean)” value [6] was 554.9 mm^3 and the “VOLUME Overall values (Median)” value [6] was 506.25 mm^3. For the same molecule, the “SURFACE Overall values (Mean)” value [7] was 149.3 mm^2, the “SURFACE Overall values (Median)” value [7] was 159 mm^2 and the “VOLUME Overall values (Mean)” value [7] was 765.05 mm^3. The “VOLUME Overall values (Median)” value [7] was 800 mm^3, the “SURFACE Overall values (Mean)” value [8] was 179.2 mm^2 and the “SURFACE Overall values (Median)” value [8] was 186 mm^2. For the same molecule, the “VOLUME Overall values (Mean)” value [8] was 1020 mm^3, the “VOLUME Overall values (Median)” value [8] was 1058.75 mm^3 and the “SURFACE Overall values (Mean)” value [9] was 0 mm^2. For the same molecule, the “SURFACE Overall values (Median)” value [9] was 0 mm^2, the “SURFACE Overall values (Mean)” value [10] was 0.06 mm^2 and the “SURFACE Overall values (Median)” value [10] was 0.03 mm^2. The “SURFACE Overall values (Mean)” value [11] was 0.18 mm^2, the “SURFACE Overall values (Median)” value [11] was 0.17 mm^2 and the “SURFACE Overall values (Mean)” value [12] was 0.37 mm^2. The “SURFACE Overall values (Median)” value [12] was 0.315 mm^2, the “SURFACE Overall values (Mean)” value [13] was 0.89 mm^2 and the “SURFACE Overall values (Median)” value [13] was 0.93 mm^2. The “SURFACE Overall values (Mean)” value [14] was 2.48 mm^2, the “SURFACE Overall values (Median)” value [14] was 1.83 mm^2 and the “SURFACE Overall values (Mean)” value [15] was 6.7 mm^2. The “SURFACE Overall values (Median)” value [15] was 6.94 mm^2, the “SURFACE Overall values (Mean)” value [16] was 13.61 mm^2 and the “SURFACE Overall values (Median)” value [16] was 12.26 mm^2. The “SURFACE Overall values (Mean)” value [17] was 29.17 mm^2, the “SURFACE Overall values (Median)” value [17] was 24.34 mm^2 and the “SURFACE Overall values (Mean)” value [18] was 41.53 mm^2. The “SURFACE Overall values (Median)” value [18] was 37.56 mm^2, the “SURFACE Overall values (Mean)” value [19] was 0 mm^2 and the “SURFACE Overall values (Median)” value [19] was 0 mm^2. For the same molecule, the “VOLUME Overall values (Mean)” value [19] was 0 mm^3, the “VOLUME Overall values (Median)” value [19] was 0 mm^3 and the “SURFACE Overall values (Mean)” value [20] was 14.3 mm^2. The “SURFACE Overall values (Median)” value [20] was 12.5 mm^2, the “VOLUME Overall values (Mean)” value [20] was 28.85 mm^3 and the “VOLUME Overall values (Median)” value [20] was 22.75 mm^3. The “SURFACE Overall values (Mean)” value [21] was 27.9 mm^2, the “SURFACE Overall values (Median)” value [21] was 25 mm^2 and the “VOLUME Overall values (Mean)” value [21] was 74.95 mm^3. The “VOLUME Overall values (Median)” value [21] was 62.5 mm^3, the “SURFACE Overall values (Mean)” value [22] was 46.3 mm^2 and the “SURFACE Overall values (Median)” value [22] was 42 mm^2. For the same molecule, the “VOLUME Overall values (Mean)” value [22] was 150.05 mm^3, the “VOLUME Overall values (Median)” value [22] was 126 mm^3 and the “SURFACE Overall values (Mean)” value [23] was 71.2 mm^2. The “SURFACE Overall values (Median)” value [23] was 63.5 mm^2, the “VOLUME Overall values (Mean)” value [23] was 280.6 mm^3 and the “VOLUME Overall values (Median)” value [23] was 232.75 mm^3. The “SURFACE Overall values (Mean)” value [24] was 107.8 mm^2, the “SURFACE Overall values (Median)” value [24] was 95 mm^2 and the “VOLUME Overall values (Mean)” value [24] was 496.8 mm^3. For the same molecule, the “VOLUME Overall values (Median)” value [24] was 425.25 mm^3, the “SURFACE Overall values (Mean)” value [25] was 141.7 mm^2 and the “SURFACE Overall values (Median)” value [25] was 128 mm^2. The “VOLUME Overall values (Mean)” value [25] was 744.75 mm^3, the “VOLUME Overall values (Median)” value [25] was 608.5 mm^3 and the “SURFACE Overall values (Mean)” value [26] was 177.1 mm^2. For the same molecule, the “SURFACE Overall values (Median)” value [26] was 162.5 mm^2, the “VOLUME Overall values (Mean)” value [26] was 1029.35 mm^3 and the “VOLUME Overall values (Median)” value [26] was 885.75 mm^3. The “Differences in intradermal KLN 205 tumour growth rate vs. placebo, in words” value (intradermal inoculation, Mann-Whitney U test) was “not differences”, the “Intradermal KLN 205 tumour growth vs. placebo, tendency in words” value (intradermal inoculation, surface or volume, all days scored after day 17th) was “significant tendency” and the “Differences in intramuscular KLN 205 tumour growth rate vs. placebo, in words” value (intramuscular inoculation, Mann-Whitney U test) was “not differences”. For the same molecule, the “Inhibition of the in vivo growth of subcutaneous KLN 205 cells, in words” value (subcutaneous inoculation) was “inhibit the in vivo growth” and the “Differences in subcutaneous KLN 205 tumour growth rate vs. placebo, statistical significance p (Mann-Whitney U test)” value (subcutaneous inoculation, surface or volume, all days scored after the day 20th) was < 0.05.
With `N.N.[Cl][Pt][Cl]` [Cisplatin, reference compound] the “SURFACE Overall values (Mean)” value [19] was 0 mm^2, the “SURFACE Overall values (Median)” value [19] was 0 mm^2 and the “VOLUME Overall values (Mean)” value [19] was 0 mm^3. The “VOLUME Overall values (Median)” value [19] was 0 mm^3, the “SURFACE Overall values (Mean)” value [20] was 7.3 mm^2 and the “SURFACE Overall values (Median)” value [20] was 6.5 mm^2. For the same molecule, the “VOLUME Overall values (Mean)” value [20] was 11.05 mm^3, the “VOLUME Overall values (Median)” value [20] was 8.75 mm^3 and the “SURFACE Overall values (Mean)” value [21] was 20 mm^2. The “SURFACE Overall values (Median)” value [21] was 20 mm^2, the “VOLUME Overall values (Mean)” value [21] was 43.6 mm^3 and the “VOLUME Overall values (Median)” value [21] was 40 mm^3. For the same molecule, the “SURFACE Overall values (Mean)” value [22] was 38.3 mm^2, the “SURFACE Overall values (Median)” value [22] was 33 mm^2 and the “VOLUME Overall values (Mean)” value [22] was 115.95 mm^3. For the same molecule, the “VOLUME Overall values (Median)” value [22] was 91.5 mm^3, the “SURFACE Overall values (Mean)” value [23] was 62.2 mm^2 and the “SURFACE Overall values (Median)” value [23] was 56 mm^2. For the same molecule, the “VOLUME Overall values (Mean)” value [23] was 233.5 mm^3, the “VOLUME Overall values (Median)” value [23] was 196 mm^3 and the “SURFACE Overall values (Mean)” value [24] was 93.7 mm^2. For the same molecule, the “SURFACE Overall values (Median)” value [24] was 96 mm^2, the “VOLUME Overall values (Mean)” value [24] was 408.05 mm^3 and the “VOLUME Overall values (Median)” value [24] was 384 mm^3. For the same molecule, the “SURFACE Overall values (Mean)” value [25] was 124.1 mm^2, the “SURFACE Overall values (Median)” value [25] was 129 mm^2 and the “VOLUME Overall values (Mean)” value [25] was 642.55 mm^3. The “VOLUME Overall values (Median)” value [25] was 646.5 mm^3, the “SURFACE Overall values (Mean)” value [26] was 151.3 mm^2 and the “SURFACE Overall values (Median)” value [26] was 155 mm^2. The “VOLUME Overall values (Mean)” value [26] was 848.95 mm^3, the “VOLUME Overall values (Median)” value [26] was 775 mm^3 and the “Inhibition of the in vivo growth of intradermal KLN 205 cells, in words” value (intradermal inoculation) was “inhibit the in vivo growth”. The “Differences in intradermal KLN 205 tumour growth rate vs. placebo, statistical significance p (Mann-Whitney U test)” value (intradermal inoculation, surface or volume, days 17th, 20th and 31th) was < 0.05.
